Experimental data taken from ChEMBL document CHEMBL1201862, “PubChem BioAssay data set” (2004).
The source made the active and inactive calls.

What was measured:
[1] = molecular target: T1, Corticotropin-releasing factor receptor 2/Corticotropin-releasing factor-binding protein (Homo sapiens, UniProt P24387+Q13324); assay: Dose Response confirmation of uHTS hits for small molecule antagonists of the CRF-binding protein and CRF-R2 receptor complex.; type: functional; details: read-out: IC50_Mean
T1 sequence (Q13324 whole entry): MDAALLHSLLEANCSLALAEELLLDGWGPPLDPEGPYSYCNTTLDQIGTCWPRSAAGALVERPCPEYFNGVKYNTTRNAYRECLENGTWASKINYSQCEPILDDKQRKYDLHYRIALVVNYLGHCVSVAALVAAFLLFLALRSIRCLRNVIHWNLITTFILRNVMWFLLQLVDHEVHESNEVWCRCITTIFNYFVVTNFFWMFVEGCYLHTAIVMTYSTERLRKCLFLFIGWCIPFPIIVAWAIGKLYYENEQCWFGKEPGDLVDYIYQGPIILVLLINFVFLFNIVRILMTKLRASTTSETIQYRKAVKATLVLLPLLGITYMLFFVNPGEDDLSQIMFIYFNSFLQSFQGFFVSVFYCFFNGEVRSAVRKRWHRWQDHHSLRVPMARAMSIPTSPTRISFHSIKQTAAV
T1 sequence (P24387 whole entry): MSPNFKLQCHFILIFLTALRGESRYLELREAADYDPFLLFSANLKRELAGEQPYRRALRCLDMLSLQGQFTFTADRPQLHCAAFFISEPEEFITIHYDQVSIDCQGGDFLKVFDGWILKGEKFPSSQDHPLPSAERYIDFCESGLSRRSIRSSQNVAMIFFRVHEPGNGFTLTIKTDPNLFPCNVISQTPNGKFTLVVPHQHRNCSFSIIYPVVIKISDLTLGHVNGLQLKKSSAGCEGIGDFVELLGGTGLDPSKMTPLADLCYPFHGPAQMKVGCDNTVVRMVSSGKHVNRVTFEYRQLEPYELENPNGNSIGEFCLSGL

[2] = CRF-BP/CRF-R2 complex antagonists, dose response, cell-based, uHTS hits, 384-well (AID 651639); type: functional, Homo sapiens; details: read-out: IC50_Mean
[3] = molecular target: T1, Corticotropin-releasing factor receptor 2/Corticotropin-releasing factor-binding protein; assay: activators of CRF receptor 2 with binding protein – uHTS hits, confirmation (AID 602473); type: functional; details: read-out: EC50_Mean
[4] = molecular target: T2, Fatty acid synthase (Homo sapiens, UniProt P49327); assay: FAS thioesterase domain inhibitors, dose response, biochemical, kinetic fluorescence intensity (AID 624326); type: functional;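 note: rate of fluorescence rise from hydrolysis of a fluorogenic O-methyl fluorescein ester substrate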
[5] = molecular target: T3, High affinity choline transporter 1 (Homo sapiens, UniProt Q9GZV3); assay: CHT inhibitors, dose response, cell-based, 5-point CRC, membrane potential dye (AID 504840); type: functional
T3 sequence (Q9GZV3 whole entry): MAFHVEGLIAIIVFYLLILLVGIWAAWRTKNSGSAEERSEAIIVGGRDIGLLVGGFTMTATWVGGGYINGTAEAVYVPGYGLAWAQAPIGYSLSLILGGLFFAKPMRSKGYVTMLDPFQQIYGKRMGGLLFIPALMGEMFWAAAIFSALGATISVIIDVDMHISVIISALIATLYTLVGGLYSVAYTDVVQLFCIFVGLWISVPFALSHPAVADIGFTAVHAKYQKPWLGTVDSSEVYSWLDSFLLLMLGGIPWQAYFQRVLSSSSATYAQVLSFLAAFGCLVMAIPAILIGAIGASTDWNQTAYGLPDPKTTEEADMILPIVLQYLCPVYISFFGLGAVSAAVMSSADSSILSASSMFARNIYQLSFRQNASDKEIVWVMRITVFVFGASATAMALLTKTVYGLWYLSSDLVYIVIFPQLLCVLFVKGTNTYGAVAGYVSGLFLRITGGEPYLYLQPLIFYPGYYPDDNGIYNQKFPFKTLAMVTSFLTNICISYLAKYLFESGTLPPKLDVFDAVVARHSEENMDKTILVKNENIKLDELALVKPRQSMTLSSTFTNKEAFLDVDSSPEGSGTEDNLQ

[6] = molecular target: T2, Fatty acid synthase; assay: FAS thioesterase domain inhibitors, dose response, biochemical, endpoint fluorescence intensity, uHTS hits (AID 624327); type: functional;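 note: fluorescence from hydrolysis of an O-methyl fluorescein acyl ester substrate by the enzyme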
[7] = molecular target: T3, High affinity choline transporter 1; assay: CHT inhibitors, dose response, cell-based, 10-point CRC, membrane potential dye (AID 588401); type: functional;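 note: membrane potential dye fluorescence of choline-evoked depolarization via CHT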
[8] = tested on: BJ; assay: cytotoxicity toward BJ-TERT-LT-ST fibroblasts, dose response, cell-based, RAS-independent, luminescence (AID 1935); type: functional; details: Homo sapiens;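 note: BJ fibroblasts immortalized with TERT plus LT and ST oncogenes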
[9] = Fluorescence-based cell-based high throughput dose response assay for inhibitors of the interaction of nucleotide-binding oligomerization domain containing 2 (NOD2) and the receptor-interacting serine-threonine kinase 2 (RIPK2).; type: functional; details: Homo sapiens
[10] = cytotoxicity toward DRD oncogenic fibroblasts, dose response, cell-based, non-viral oncogenic, luminescence (AID 1934); type: functional; details: Homo sapiens
[11] = tested on: BJ; assay: cells; type: functional, cell-based; details: Homo sapiens
[12] = tested on: BJ; assay: cytotoxicity toward BJ-TERT fibroblasts, dose response, cell-based, RAS-independent, luminescence (AID 1933); type: functional; details: Homo sapiens
[13] = Counterscreen for inhibitors of Trypanosoma brucei methionyl tRNA synthetase (MetRS): Luminescence-based cell-based high throughput dose response assay to identify compounds that are cytotoxic to Jurkat human T lymphocyte cells.; type: functional
[14] = molecular target: T4, Methionyl-tRNA synthetase, putative (Trypanosoma brucei brucei, UniProt Q38C91); type: functional, Trypanosoma brucei brucei strain 927/4 GUTat10.1
T4 sequence (Q38C91 whole entry): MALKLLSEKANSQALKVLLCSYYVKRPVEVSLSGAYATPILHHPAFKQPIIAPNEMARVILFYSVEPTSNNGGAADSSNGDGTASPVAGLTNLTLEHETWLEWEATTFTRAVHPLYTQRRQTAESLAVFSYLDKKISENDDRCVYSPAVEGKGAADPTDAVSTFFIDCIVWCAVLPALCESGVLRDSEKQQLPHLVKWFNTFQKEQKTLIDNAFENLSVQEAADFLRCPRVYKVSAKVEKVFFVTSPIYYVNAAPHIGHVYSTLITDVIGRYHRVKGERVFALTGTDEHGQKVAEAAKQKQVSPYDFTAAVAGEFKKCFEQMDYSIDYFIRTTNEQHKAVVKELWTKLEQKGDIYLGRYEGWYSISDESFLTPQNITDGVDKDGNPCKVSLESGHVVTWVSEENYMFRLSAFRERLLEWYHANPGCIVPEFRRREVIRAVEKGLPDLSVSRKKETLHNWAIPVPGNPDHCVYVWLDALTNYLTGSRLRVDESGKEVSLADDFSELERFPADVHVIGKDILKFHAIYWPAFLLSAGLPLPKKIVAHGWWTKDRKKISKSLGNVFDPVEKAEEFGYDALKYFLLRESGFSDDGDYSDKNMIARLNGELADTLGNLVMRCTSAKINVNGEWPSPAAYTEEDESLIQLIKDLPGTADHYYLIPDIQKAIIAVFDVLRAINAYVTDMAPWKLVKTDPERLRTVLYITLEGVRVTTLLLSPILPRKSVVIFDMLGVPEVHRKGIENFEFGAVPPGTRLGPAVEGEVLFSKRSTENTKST

[15] = molecular target: T4, Methionyl-tRNA synthetase, putative; type: functional, Trypanosoma brucei brucei strain 927/4 GUTat10.1; remark: listed apart in the source
[16] = tested on: Streptococcus; assay: Group A Streptococcus viability loss, dose response, counter-screen for streptokinase expression inhibitor project, luminescence, BacTiterGlo (AID 1915); type: functional, organism-based;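 note: potency for reduction of bacterial viability or growth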
[17] = NIH-3T3 fibroblast cytotoxicity, dose response, cytotoxicity control, cell-based, fluorescence, Alamar Blue, secondary assay (AID 2327); type: functional;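 note: NIH-3T3 mouse fibroblasts cultured with fluconazole at 8 µg/mL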
[18] = C. albicans growth with fluconazole, confirmation, fluorescence, retest (AID 2467); type: functional, cell-based
[19] = tested on: Streptococcus sp. 'group A'; assay: growth inhibition of control SK(-) GAS strain, dose response, counter-screen for streptokinase expression inhibitor project, luminescence, kanamycin, BacTiterGlo, confirmation (AID 1900); type: functional, organism-based
[20] = Luminescence Cell-Based Dose Retest to Confirm Inhibitors of Cancer Stem Cells. [Related pubchem assays (depositor defined):AID2717, AID2721]; type: functional; details: Homo sapiens
[21] = molecular target: Heat shock protein HSP 90-alpha (Homo sapiens, UniProt P07900); type: functional, organism-based
[22] = molecular target: T5, Serine/threonine-protein phosphatase (Candida dubliniensis (strain CD36 / CBS 7987 / NCPF 3949 / NRRLY-17841) (Yeast), UniProt B9W6M3); assay: calcineurin pathway inhibitors in yeast reporter, dose response, S. cerevisiae, CDRE-lacZ, luminescence, secondary (AID 2388); type: functional, cell-based;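 note: yeast reporter cells carrying a calcineurin-responsive lacZ construct stimulated with calcium chloride; luminescent beta-galactosidase reporter signal in whole cells rather than isolated phosphatase activity; potency for inhibition where a drop in reporter signal means calcineurin blockade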
T5 sequence (B9W6M3 whole entry): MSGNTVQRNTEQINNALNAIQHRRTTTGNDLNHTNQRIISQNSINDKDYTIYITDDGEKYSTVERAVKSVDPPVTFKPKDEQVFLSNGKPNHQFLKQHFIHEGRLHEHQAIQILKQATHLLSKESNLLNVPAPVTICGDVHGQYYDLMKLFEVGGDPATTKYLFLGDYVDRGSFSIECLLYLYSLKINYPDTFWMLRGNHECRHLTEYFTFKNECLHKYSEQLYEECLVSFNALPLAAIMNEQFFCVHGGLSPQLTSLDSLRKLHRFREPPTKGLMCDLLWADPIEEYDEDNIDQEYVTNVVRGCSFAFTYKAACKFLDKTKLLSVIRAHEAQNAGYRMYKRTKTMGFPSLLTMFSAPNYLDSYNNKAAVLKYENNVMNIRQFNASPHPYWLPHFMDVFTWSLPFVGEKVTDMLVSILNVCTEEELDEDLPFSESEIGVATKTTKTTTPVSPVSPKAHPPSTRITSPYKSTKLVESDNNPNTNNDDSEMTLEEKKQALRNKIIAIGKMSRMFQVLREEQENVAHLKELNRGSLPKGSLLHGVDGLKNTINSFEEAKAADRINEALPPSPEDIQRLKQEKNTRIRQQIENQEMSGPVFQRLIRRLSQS

[23] = molecular target: Genome polyprotein (dengue virus type 2, UniProt P29990); assay: Dengue-2 NS5 methyltransferase inhibitors, primary screen, biochemical, confirmation dose response (AID 588689); type: functional
[24] = molecular target: T6, Activin receptor type-1 (Homo sapiens, UniProt Q04771); assay: Navigating the Kinome. Panel member name: ACVR1; type: functional
T6 sequence (Q04771 whole entry): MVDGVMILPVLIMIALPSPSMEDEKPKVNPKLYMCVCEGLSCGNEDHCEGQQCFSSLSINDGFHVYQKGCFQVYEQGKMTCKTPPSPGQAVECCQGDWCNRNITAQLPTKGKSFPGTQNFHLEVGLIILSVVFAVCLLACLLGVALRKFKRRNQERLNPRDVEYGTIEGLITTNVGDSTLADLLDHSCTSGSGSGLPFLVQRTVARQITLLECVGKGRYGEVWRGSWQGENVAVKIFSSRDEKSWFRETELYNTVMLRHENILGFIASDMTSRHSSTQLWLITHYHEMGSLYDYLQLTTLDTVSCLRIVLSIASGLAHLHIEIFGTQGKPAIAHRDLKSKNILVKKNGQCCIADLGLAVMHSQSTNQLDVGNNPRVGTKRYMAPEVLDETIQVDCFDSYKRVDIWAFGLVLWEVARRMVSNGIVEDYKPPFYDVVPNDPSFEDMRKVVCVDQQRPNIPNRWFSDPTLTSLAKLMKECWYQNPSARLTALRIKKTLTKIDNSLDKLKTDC

T2 sequence (P49327 whole entry, the tested form may be a part): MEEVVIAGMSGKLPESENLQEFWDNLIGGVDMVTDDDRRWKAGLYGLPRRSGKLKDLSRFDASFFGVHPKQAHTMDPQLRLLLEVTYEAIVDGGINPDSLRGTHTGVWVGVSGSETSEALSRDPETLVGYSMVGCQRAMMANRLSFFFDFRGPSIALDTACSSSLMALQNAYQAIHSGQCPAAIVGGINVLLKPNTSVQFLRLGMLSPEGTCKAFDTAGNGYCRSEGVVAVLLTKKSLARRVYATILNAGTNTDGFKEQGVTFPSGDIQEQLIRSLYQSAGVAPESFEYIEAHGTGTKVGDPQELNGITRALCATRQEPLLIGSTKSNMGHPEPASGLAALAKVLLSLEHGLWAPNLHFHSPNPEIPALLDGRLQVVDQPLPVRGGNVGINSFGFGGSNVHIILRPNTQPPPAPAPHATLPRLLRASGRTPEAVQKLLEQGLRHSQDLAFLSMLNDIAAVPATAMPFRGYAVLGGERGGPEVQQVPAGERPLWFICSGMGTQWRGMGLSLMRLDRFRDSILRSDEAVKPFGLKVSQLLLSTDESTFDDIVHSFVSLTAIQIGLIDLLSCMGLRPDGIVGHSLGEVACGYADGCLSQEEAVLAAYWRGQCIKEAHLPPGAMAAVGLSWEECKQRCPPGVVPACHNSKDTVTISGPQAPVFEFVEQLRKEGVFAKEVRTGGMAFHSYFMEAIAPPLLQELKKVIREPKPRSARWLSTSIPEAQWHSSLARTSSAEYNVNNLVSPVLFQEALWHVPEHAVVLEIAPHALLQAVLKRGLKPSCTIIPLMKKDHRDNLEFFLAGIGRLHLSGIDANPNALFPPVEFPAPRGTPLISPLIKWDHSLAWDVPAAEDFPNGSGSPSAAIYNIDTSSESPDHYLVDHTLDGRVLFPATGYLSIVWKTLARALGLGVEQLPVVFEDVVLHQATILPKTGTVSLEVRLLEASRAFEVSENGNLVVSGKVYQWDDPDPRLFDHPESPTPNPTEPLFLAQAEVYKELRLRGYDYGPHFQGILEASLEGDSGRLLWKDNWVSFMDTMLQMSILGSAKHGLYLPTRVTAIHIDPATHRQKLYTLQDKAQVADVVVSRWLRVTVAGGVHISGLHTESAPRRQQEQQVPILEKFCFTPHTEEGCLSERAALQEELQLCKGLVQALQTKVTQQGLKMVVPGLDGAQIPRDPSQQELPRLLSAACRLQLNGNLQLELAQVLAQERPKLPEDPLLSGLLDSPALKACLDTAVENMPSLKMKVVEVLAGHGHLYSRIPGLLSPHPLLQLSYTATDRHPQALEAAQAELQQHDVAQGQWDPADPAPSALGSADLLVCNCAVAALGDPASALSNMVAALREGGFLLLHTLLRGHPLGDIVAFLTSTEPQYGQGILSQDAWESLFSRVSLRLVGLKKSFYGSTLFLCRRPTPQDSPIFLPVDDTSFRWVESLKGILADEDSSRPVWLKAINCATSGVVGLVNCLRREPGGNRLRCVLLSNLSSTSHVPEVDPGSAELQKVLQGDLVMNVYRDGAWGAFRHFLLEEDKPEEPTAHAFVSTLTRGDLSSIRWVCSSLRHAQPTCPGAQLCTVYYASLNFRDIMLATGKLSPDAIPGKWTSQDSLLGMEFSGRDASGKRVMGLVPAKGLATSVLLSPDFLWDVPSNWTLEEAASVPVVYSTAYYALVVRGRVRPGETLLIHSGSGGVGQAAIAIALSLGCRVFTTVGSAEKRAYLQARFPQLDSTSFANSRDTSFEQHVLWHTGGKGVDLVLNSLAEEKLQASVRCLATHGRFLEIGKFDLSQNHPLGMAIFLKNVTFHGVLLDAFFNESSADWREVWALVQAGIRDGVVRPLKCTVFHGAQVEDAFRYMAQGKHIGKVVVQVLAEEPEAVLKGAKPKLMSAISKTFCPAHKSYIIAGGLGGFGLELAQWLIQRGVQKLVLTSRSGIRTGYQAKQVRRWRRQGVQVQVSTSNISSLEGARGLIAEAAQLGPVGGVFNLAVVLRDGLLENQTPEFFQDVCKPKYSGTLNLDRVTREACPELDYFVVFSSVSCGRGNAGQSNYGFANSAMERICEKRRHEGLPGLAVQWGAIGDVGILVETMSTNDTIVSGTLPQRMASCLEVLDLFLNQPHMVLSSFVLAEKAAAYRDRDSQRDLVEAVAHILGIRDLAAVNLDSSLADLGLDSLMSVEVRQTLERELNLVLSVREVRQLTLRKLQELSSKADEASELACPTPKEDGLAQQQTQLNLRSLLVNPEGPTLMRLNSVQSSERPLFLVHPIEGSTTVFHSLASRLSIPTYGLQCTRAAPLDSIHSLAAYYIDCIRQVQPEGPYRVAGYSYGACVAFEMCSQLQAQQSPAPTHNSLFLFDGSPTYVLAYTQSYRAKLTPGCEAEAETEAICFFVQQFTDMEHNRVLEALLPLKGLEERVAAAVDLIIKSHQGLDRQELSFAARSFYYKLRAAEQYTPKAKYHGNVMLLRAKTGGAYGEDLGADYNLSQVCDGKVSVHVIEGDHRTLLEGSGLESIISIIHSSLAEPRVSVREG
Chain of Genome polyprotein (P29990 2492-3391 limits assumed): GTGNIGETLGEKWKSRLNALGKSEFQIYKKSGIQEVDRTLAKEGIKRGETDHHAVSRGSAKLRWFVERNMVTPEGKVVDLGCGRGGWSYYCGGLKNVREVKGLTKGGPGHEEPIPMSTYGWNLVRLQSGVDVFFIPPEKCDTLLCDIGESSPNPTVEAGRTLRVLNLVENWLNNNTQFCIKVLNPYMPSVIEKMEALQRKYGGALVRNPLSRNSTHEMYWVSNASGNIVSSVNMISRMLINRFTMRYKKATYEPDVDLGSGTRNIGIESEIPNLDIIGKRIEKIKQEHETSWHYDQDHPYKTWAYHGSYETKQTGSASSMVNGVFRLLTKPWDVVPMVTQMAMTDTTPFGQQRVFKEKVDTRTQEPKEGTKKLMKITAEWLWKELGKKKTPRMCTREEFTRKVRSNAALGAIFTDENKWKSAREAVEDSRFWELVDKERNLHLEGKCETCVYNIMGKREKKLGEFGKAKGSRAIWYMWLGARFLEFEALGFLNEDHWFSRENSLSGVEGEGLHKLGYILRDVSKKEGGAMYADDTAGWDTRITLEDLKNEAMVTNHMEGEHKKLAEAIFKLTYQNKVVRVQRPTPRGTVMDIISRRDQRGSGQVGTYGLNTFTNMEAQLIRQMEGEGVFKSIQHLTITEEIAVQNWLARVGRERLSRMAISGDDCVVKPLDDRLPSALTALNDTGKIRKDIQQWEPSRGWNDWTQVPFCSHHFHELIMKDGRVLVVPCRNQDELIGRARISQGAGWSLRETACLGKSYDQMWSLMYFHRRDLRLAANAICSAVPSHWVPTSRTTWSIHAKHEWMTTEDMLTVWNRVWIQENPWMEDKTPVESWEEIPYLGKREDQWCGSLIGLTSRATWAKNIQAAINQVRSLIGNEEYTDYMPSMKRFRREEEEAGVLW

With `COc1ccc(-c2c(C)nn3c(N4CCCCCC4)cc(C)nc23)cc1OC` the IC50 [1] was 21.4 µM (active), the IC50 [2] was > 20 µM (inactive) and the EC50 [3] was > 53 µM (inactive).

With `Cn1c(/C=C/N(Cc2ccccc2)c2ccccc2)c([N+](=O)[O-])c(=O)n(C)c1=O` the IC50 [4] was 16.3 µM (active), the IC50 [5] was 2.98 µM (active) and the IC50 [6] was 18.8 µM (active). For the same compound, the IC50 [7] was 3.12 µM (active).

In the case of `CC1CCCCC1NC(=O)c1cccc(S(=O)(=O)N2CCN(C)CC2)c1` (stereo not drawn), the IC50 [5] is reported as 4.37 µM (active) and the IC50 [7] is reported as 4.22 µM (active).

In the case of `C=CCOc1cccc(C(=O)/C=C2/C(=O)Nc3ccccc32)c1`, the EC50 [8] is reported as 7.99 µM (active), the IC50 [9] is reported as 5.51 µM (active) and the EC50 [10] is reported as 9.43 µM (inconclusive). For the same compound, the EC50 [11] was 31.5 µM (inconclusive) and the EC50 [12] was 5.47 µM (inconclusive).

For `O=C(CSc1ccc(-c2nc3ccccc3[nH]2)cn1)Nc1ccc(S(=O)(=O)NC2CC2)cc1`, the IC50 [13] was 83.3 µM (inactive), the IC50 [14] was 4.53 µM (active) and the IC50 [15] was 3.58 µM (active).

For `O=C(NNC1=C(C(=O)C(F)(F)F)CCC1)c1ccc(Br)cc1`, the EC50 [16] was 2.23 µM (active), the EC50 [17] was > 75 µM (inactive) and the EC50 [18] was 0.152 µM (active). The EC50 [19] was 1.02 µM (active), the AC50 [20] was 3.16 µM (active) and the AC50 [21] was 1.11 µM (active). For the same compound, the IC50 [5] was 11.2 µM (active) and the EC50 [22] was > 180 µM (inactive).

For `O=C(NN1C(=O)/C(=C/c2cccs2)SC1=S)c1ccncc1`, the IC50 [5] was 7.57 µM (active) and the IC50 [7] was 7.13 µM (active).

For `Cc1ccc(S(=O)(=O)Nc2ccc3ccccc3c2[N+](=O)[O-])cc1`, the AC50 [21] was 8.19 µM (active), the IC50 [1] was 18.7 µM (active) and the IC50 [2] was 14.9 µM (active). The EC50 [3] was > 53 µM (inactive) and the IC50 [23] was 31.7 µM (active).

With `OCCN1CCN(c2ncnc3scc(-c4ccc(F)cc4)c23)CC1` the IC50 [5] was 6.59 µM (active) and the IC50 [7] was 7.51 µM (active).

With `COc1cc(CCc2ccccc2)c(C(=O)O)c(O)c1CC=C(C)C` [AMORFRUTIN A] the IC50 [1] was 7.93 µM (active), the IC50 [2] was 12.1 µM (active) and the EC50 [3] was 35.2 µM (active).

With `O=C(Nc1cccc(Cl)c1)Nc1ncc(CCNc2ncnc3ccsc23)s1` [SNS-314] the Ki [24] was > 3.98 µM (inactive).
